The values that follow come from US7989631B2, “Hydrate forms of AMG706” (Amgen Inc., priority 2006, dated 2011).

Series [1] in a line: Solubility of AMG 706 anhydrous diphosphate salt in water over time. In kind it is physicochemical. Conditions: thermodynamic from solid. On the procedure: AMG 706 anhydrous diphosphate (˜100 mg) salt was added to 2 mL of water and placed on a rotator stirrer. Multiple runs were performed each at different temperatures between about room temperature to about 40° C. Solid was isolated at various time points by vacuum filtering the supernatant and the material was air-dried overnight.

The nature of series [2]: Conversion of anhydrous diphosphate salt to monophosphate hydrate salt in water. In kind it is physicochemical. Conditions: in the presence of water or aqueous co-solvent mixtures. The source says:
The anhydrous diphosphate sale of AMG 706 is currently manufactured as a crystalline form. This crystalline form is used in the table formulations for clinical trials.
The monophosphate dihydrate salt was isolated and characterized by various analytical tools for its physico-chemical properties. Interconversion kinetics of anhydrous diphosphate to monophosphate dihydrate was studied under various conditions.

For `CC1(C)CNc2cc(NC(=O)c3cccnc3NCc3ccncc3)ccc21` [AMG 706 anhydrous diphosphate, N-(2,3-dihydro-3,3-dimethyl-1H-indol-6-yl)-2-[(4-pyridinylmethyl)amino]-3-pyridinecarboxamide], the solubility at 0.5 hr in series [1] (time 0.5 hr, RT, pH 2.6) turned out to be 22 mg/mL. In series [1] (time 1.0 hr, RT, pH 2.7), the solubility at 1 hr worked out at 21 mg/mL. Moreover, the solubility at 3 hr in series [1] (time 3.0 hr, RT, pH 2.7) was 21 mg/mL. Besides, the solubility at 6 hr in series [1] (40 C, pH 2.6) stood at 20 mg/mL; in series [1] (RT, pH 2.6) it was 21 mg/mL. In addition, the solubility at 24 hr in series [1] (40 C, pH 3.0) stood at 26 mg/mL; in series [1] (RT, pH 2.9) it was 21 mg/mL. In series [2], the “Solid-form stability (disproportionation/conversion)” value was “can disproportionate and convert to a more stable monophosphate hydrate salt”.
